In the NIST ThermoML archive (doi:10.1016/j.jct.2011.02.008):
± gives the expanded uncertainty stated by the source.

Settings: Liquid, Vibrating tube method

SMILES: C1CCCCC1 [cyclohexane]
- mass density (288.15 K, 100 kPa): 782.7 ± 2.4 kg/m3
- mass density (288.15 K, 1000 kPa): 783.7 ± 2.4 kg/m3
- mass density (288.15 K, 5000 kPa): 787 ± 2.4 kg/m3
- mass density (288.15 K, 10000 kPa): 790.7 ± 2.4 kg/m3
- mass density (288.15 K, 15000 kPa): 794.1 ± 2.4 kg/m3
- mass density (298.15 K, 100 kPa): 773.2 ± 2.4 kg/m3
- mass density (298.15 K, 1000 kPa): 774 ± 2.4 kg/m3
- mass density (298.15 K, 5000 kPa): 777.6 ± 2.4 kg/m3
- mass density (298.15 K, 10000 kPa): 781.8 ± 2.4 kg/m3
- mass density (298.15 K, 15000 kPa): 785.6 ± 2.4 kg/m3
- mass density (298.15 K, 20000 kPa): 789.3 ± 2.4 kg/m3
- mass density (298.15 K, 25000 kPa): 792.9 ± 2.4 kg/m3
- mass density (298.15 K, 30000 kPa): 796.8 ± 2.4 kg/m3
- mass density (298.15 K, 35000 kPa): 799.7 ± 2.4 kg/m3
- mass density (308.15 K, 100 kPa): 763.6 ± 2.4 kg/m3
- mass density (308.15 K, 1000 kPa): 764.5 ± 2.4 kg/m3
- mass density (308.15 K, 5000 kPa): 768.2 ± 2.4 kg/m3
- mass density (308.15 K, 10000 kPa): 772.6 ± 2.4 kg/m3
- mass density (308.15 K, 15000 kPa): 776.8 ± 2.4 kg/m3
- mass density (308.15 K, 20000 kPa): 780.8 ± 2.4 kg/m3
- mass density (308.15 K, 25000 kPa): 784.6 ± 2.4 kg/m3
- mass density (308.15 K, 30000 kPa): 788.3 ± 2.4 kg/m3
- mass density (308.15 K, 35000 kPa): 791.8 ± 2.4 kg/m3
- mass density (308.15 K, 40000 kPa): 795.2 ± 2.4 kg/m3
- mass density (318.15 K, 100 kPa): 754 ± 2.4 kg/m3
- mass density (318.15 K, 1000 kPa): 755 ± 2.4 kg/m3
- mass density (318.15 K, 5000 kPa): 759 ± 2.4 kg/m3
- mass density (318.15 K, 10000 kPa): 763.7 ± 2.4 kg/m3
- mass density (318.15 K, 15000 kPa): 767.9 ± 2.4 kg/m3
- mass density (318.15 K, 20000 kPa): 772.4 ± 2.4 kg/m3
- mass density (318.15 K, 25000 kPa): 776.4 ± 2.4 kg/m3
- mass density (318.15 K, 30000 kPa): 780.3 ± 2.4 kg/m3
- mass density (318.15 K, 35000 kPa): 784.1 ± 2.4 kg/m3
- mass density (318.15 K, 40000 kPa): 787.7 ± 2.4 kg/m3
- mass density (318.15 K, 45000 kPa): 791.1 ± 2.4 kg/m3
- mass density (318.15 K, 50000 kPa): 794.4 ± 2.4 kg/m3
- mass density (328.15 K, 100 kPa): 744.4 ± 2.4 kg/m3
- mass density (328.15 K, 1000 kPa): 745.4 ± 2.4 kg/m3
- mass density (328.15 K, 5000 kPa): 749.7 ± 2.4 kg/m3
- mass density (328.15 K, 10000 kPa): 754.7 ± 2.4 kg/m3
- mass density (328.15 K, 15000 kPa): 759.5 ± 2.4 kg/m3
- mass density (328.15 K, 20000 kPa): 764 ± 2.4 kg/m3
- mass density (328.15 K, 25000 kPa): 768.2 ± 2.4 kg/m3
- mass density (328.15 K, 30000 kPa): 772.3 ± 2.4 kg/m3
- mass density (328.15 K, 35000 kPa): 776.1 ± 2.4 kg/m3
- mass density (328.15 K, 40000 kPa): 779.9 ± 2.4 kg/m3
- mass density (328.15 K, 45000 kPa): 783.5 ± 2.4 kg/m3
- mass density (328.15 K, 50000 kPa): 787 ± 2.4 kg/m3
- mass density (338.15 K, 100 kPa): 734.5 ± 2.4 kg/m3
- mass density (338.15 K, 1000 kPa): 735.6 ± 2.4 kg/m3
- mass density (338.15 K, 5000 kPa): 740.2 ± 2.4 kg/m3
- mass density (338.15 K, 10000 kPa): 745.7 ± 2.4 kg/m3
- mass density (338.15 K, 15000 kPa): 750.7 ± 2.4 kg/m3
- mass density (338.15 K, 20000 kPa): 755.5 ± 2.4 kg/m3
- mass density (338.15 K, 25000 kPa): 760 ± 2.4 kg/m3
- mass density (338.15 K, 30000 kPa): 764.3 ± 2.4 kg/m3
- mass density (338.15 K, 35000 kPa): 768.4 ± 2.4 kg/m3
- mass density (338.15 K, 40000 kPa): 772.3 ± 2.4 kg/m3
- mass density (338.15 K, 45000 kPa): 776 ± 2.4 kg/m3
- mass density (338.15 K, 50000 kPa): 779.7 ± 2.5 kg/m3
- mass density (338.15 K, 55000 kPa): 783.2 ± 2.5 kg/m3
- mass density (348.15 K, 100 kPa): 724.6 ± 2.4 kg/m3
- mass density (348.15 K, 1000 kPa): 725.7 ± 2.4 kg/m3
- mass density (348.15 K, 5000 kPa): 730.8 ± 2.4 kg/m3
- mass density (348.15 K, 10000 kPa): 736.5 ± 2.4 kg/m3
- mass density (348.15 K, 15000 kPa): 741.9 ± 2.4 kg/m3
- mass density (348.15 K, 20000 kPa): 747 ± 2.4 kg/m3
- mass density (348.15 K, 25000 kPa): 751.7 ± 2.4 kg/m3
- mass density (348.15 K, 30000 kPa): 756.2 ± 2.4 kg/m3
- mass density (348.15 K, 35000 kPa): 760.5 ± 2.4 kg/m3
- mass density (348.15 K, 40000 kPa): 764.6 ± 2.4 kg/m3
- mass density (348.15 K, 45000 kPa): 768.6 ± 2.4 kg/m3
- mass density (348.15 K, 50000 kPa): 772.3 ± 2.5 kg/m3
- mass density (348.15 K, 55000 kPa): 776 ± 2.5 kg/m3
- mass density (358.15 K, 100 kPa): 714.3 ± 2.4 kg/m3
- mass density (358.15 K, 1000 kPa): 715.6 ± 2.4 kg/m3
- mass density (358.15 K, 5000 kPa): 720.9 ± 2.4 kg/m3
- mass density (358.15 K, 10000 kPa): 727.2 ± 2.4 kg/m3
- mass density (358.15 K, 15000 kPa): 732.9 ± 2.4 kg/m3
- mass density (358.15 K, 20000 kPa): 738.3 ± 2.4 kg/m3
- mass density (358.15 K, 25000 kPa): 743.3 ± 2.4 kg/m3
- mass density (358.15 K, 30000 kPa): 748.1 ± 2.4 kg/m3
- mass density (358.15 K, 35000 kPa): 752.6 ± 2.4 kg/m3
- mass density (358.15 K, 40000 kPa): 757 ± 2.4 kg/m3
- mass density (358.15 K, 45000 kPa): 761.1 ± 2.5 kg/m3
- mass density (358.15 K, 50000 kPa): 765 ± 2.5 kg/m3
- mass density (358.15 K, 55000 kPa): 768.9 ± 2.5 kg/m3
